The values below come from paper PMC9532399, “The lysosomal transporter TAPL has a dual role as peptide translocator and phosphatidylserine floppase” (Nature Communications, 2022).

SMILES strings stand for the structures. Positions count from the first letter of the chain named. Residues, ends and D or L forms follow the SMILES beside them. *: point of attachment. X1 = CC[N+]1=C(C=CC=CC=C2N(CCCCCC(=O)NCCN3C(=O)CC(*)C3=O)c3ccc(S(=O)(=O)[O-])cc3C2(C)C)C(C)(C)c2cc(S(=O)(=O)O)ccc21

One data set deals with T1, mouse TAPL ΔTMD0 (Mus musculus, UniProt Q9JJ59).
T1 construct: thrombin cleavage site (C); eGFP (C); 10XHis (C); made in house; host or cells: Trichoplusia ni High Five (Hi5) insect cells, baculovirus (pVL1393)
T1 sequence (Q9JJ59 143-762): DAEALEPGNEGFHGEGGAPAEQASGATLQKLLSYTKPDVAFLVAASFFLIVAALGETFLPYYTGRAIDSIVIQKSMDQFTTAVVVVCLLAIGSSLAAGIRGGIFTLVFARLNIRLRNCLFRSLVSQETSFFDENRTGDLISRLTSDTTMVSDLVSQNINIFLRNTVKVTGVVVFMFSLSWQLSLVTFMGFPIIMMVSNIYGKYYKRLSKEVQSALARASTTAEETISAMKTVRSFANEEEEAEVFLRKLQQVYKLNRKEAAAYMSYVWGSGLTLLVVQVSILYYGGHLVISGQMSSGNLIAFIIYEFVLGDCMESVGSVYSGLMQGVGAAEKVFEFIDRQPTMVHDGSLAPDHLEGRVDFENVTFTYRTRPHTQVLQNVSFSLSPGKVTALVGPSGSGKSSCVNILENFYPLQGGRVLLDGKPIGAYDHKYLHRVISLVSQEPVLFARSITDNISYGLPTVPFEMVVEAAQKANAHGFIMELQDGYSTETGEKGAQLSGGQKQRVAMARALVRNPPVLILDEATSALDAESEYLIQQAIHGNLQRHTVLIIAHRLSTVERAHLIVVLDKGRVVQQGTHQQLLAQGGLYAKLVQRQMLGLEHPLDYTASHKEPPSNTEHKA
As to the kind of experiment: NADH-coupled ATPase assay, nanodisc-reconstituted ΔTMD0. The data set is classed as biochemical. The settings on record: POPE nanodiscs, data not shown. Here is the method: […] Each lipid was dissolved in 0.17% (w/v) DM and 0.017% (w/v) CHS and mixed with MSP1 and DM/CHS-purified ΔTMD0 at a molar ratio of 150:4:1. After incubation on ice for 10 min, the mixture was treated with 60 mg of Bio-beads (Bio-Rad) at 4 °C for 4 h to remove detergent. The supernatant was additionally incubated overnight with 120 mg of fresh Bio-Beads at 4 °C. The final supernatant was injected onto a Superdex 200 Increase 10/300 GL column equilibrated with a buffer of 20 mM HEPES–NaOH pH 7.5 and 200 mM NaCl. The elution fractions containing protein-loaded nanodiscs were pooled and used for cryo-EM and functional analyses.
The ATPase activities of proteins obtained after various purification procedures were determined by NADH-coupled spectrophotometric assays. 10 μg of DM-purified or nanodisc-reconstituted protein was added to 140 μL of reaction buffer containing 50 mM HEPES–KOH pH 8.0, 60 μg/mL pyruvate kinase (Roche), 16 μg/mL lactate dehydrogenase (Roche), 10 mM phosphoenolpyruvate (Roche), 0.3 mM NADH, 3 mM ATP, 10 mM MgCl2, and 0.17% (w/v) DM in the presence or absence of 250 μM peptide. […] ATP hydrolysis activity was monitored at 37 °C for 3 min by measuring the rate of decline of NADH absorbance at 340 nm. […] The kinetic parameters of ATP hydrolysis were calculated by fitting the initial rates of ATP hydrolysis to the Michaelis–Menten equation using PRISM 4.0 (GraphPad software).

Data set [1] is described as follows: Aggregation in ATPase reaction buffer. The data set is classed as physicochemical. The settings on record: addition to the ATPase reaction buffer, data not shown. The method, then:
The ATPase activities of proteins obtained after various purification procedures were determined by NADH-coupled spectrophotometric assays. 10 μg of DM-purified or nanodisc-reconstituted protein was added to 140 μL of reaction buffer containing 50 mM HEPES–KOH pH 8.0, 60 μg/mL pyruvate kinase (Roche), 16 μg/mL lactate dehydrogenase (Roche), 10 mM phosphoenolpyruvate (Roche), 0.3 mM NADH, 3 mM ATP, 10 mM MgCl2, and 0.17% (w/v) DM in the presence or absence of 250 μM peptide. For proteins reconstituted into nanodiscs, DM was not added to the reaction buffer. For lipid-stimulated ATPase assays, the thin film of lipids was hydrated in 100 μL of buffer containing 50 mM HEPES–KOH pH 8.0 and 10 mM MgCl2 to yield a 10 mM solution. After sonication of the lipid solution for 10 min to decrease its turbidity, the reaction was initiated by adding varying concentrations of lipids to the mixture. ATP hydrolysis activity was monitored at 37 °C for 3 min by measuring the rate of decline of NADH absorbance at 340 nm. To inhibit ATP hydrolysis, the reaction mixture was incubated with 3 mM AMP-PNP or 8 mM NaF/2 mM BeSO4 for 5 min at RT. The kinetic parameters of ATP hydrolysis were calculated by fitting the initial rates of ATP hydrolysis to the Michaelis–Menten equation using PRISM 4.0 (GraphPad software).

For another data set, the target named is T2, TAPL Y405A mutant (Mus musculus, UniProt Q9JJ59, Y405A).
T2 construct: thrombin cleavage site (C); eGFP (C); 10XHis (C); made in house; host or cells: Trichoplusia ni High Five (Hi5) insect cells, baculovirus (pVL1393)
T2 sequence (Q9JJ59 143-762 Y405A): T1 sequence (Q9JJ59 143-762) with Y263A
Nature of the data set: Microscale thermophoresis, DM-purified Y405A. The data set is classed as binding. The conditions noted are these: Y405A vs wild-type. Here is the method:
Binding of 9-mer peptide (RRYQNSTC^Cy-5L) to DM-purified ΔTMD0 was monitored by microscale thermophoresis as described previously. Briefly, 9-mer peptide was incubated with a 10x molar excess of Cy5 dye (Thermo Fisher Scientific) in 50 mM HEPES–NaOH pH 7.5 at RT for 2 h. The labeled peptide was purified from the excess dye with a desalting column. Cy5-labeled peptide (0.2 μM) was added to serial 2-fold dilutions of protein. The mixtures were incubated for 10 min at RT and loaded onto Monolith NT.115 standard-treated capillaries (NanoTemper Technologies). Thermophoretic movements were induced by infrared laser activation. Subsequent fluorescence changes were monitored with a Monolith NT.115 pico device and plotted against protein concentration. The results were analyzed with MO.Affinity Analysis software.

Details of data set [2]: method as in PMID 11867457. The settings on record: cited from earlier work.

As to `CCCCCCCC/C=C\CCCCCCCC(=O)O[C@H](COC(=O)CCCCCCCCCCCCCCC)COP(=O)(O)OCCN` [POPE, 1-palmitoyl-2-oleoyl-sn-glycero-3-phosphoethanolamine], on mouse TAPL ΔTMD0, the “ΔTMD0 ATPase activity in nanodiscs” value was “no ΔTMD0 activity was detected”. The “aggregation” value in data set [1] is “caused nonspecific aggregation”.
Turning to `CC[N+]1=C(C=CC=CC=C2N(CCCCCC(=O)NCCN3C(=O)CC(SC[C@H](NC(=O)[C@@H](NC(=O)[C@H](CO)NC(=O)[C@H](CC(N)=O)NC(=O)[C@H](CCC(N)=O)NC(=O)[C@H](Cc4ccc(O)cc4)NC(=O)[C@H](CCCNC(=N)N)NC(=O)[C@@H](N)CCCNC(=N)N)[C@@H](C)O)C(=O)N[C@@H](CC(C)C)C(=O)O)C3=O)c3ccc(S(=O)(=O)[O-])cc3C2(C)C)C(C)(C)c2cc(S(=O)(=O)O)ccc21` (stereo partly drawn) [RRYQNSTC^Cy-5L] (H-RRYQNSTC(X1)L-OH; N-terminus and C-terminus assumed), the “decrease in peptide affinity” value at TAPL Y405A mutant worked out at 73 fold.
Turning to `CC(C)CCC[C@@H](C)[C@H]1CC[C@H]2[C@@H]3CC=C4C[C@@H](O)CC[C@]4(C)[C@H]3CC[C@]12C` [cholesterol], the “time of spontaneous movement across the liposome bilayer” value in data set [2] was below 1 min.
